These results are taken from US20010039295A1, “N,N'-bis(2-hydroxybenzyl)-ethylenediamine-N,N'-diacetic acid in iron chelating therapy” (priority 1999, published 2001).

SMILES strings stand for the structures. Structures can show the parent of a compound that is named as a salt.

For data set [1] the following is noted: given orally to human patients; cited from earlier work.
For data set [2] the following is noted: typical, parenteral therapy; cited from earlier work.
In data set [3] the test system is iron loaded Cebus apella monkey. Conditions: Cebus apella monkey screen, DFOM subcutaneous (Bergeron et al. 1993; Peter et al. 1994); cited from earlier work.
The test system is the same in data set [4]. In words: Iron-balance study (iron clearing efficiency) in iron-loaded Cebus apella monkeys.
Experimental: After intramuscular anesthesia with ketamine, an intravenous infusion is started in a leg vein. […] Two to three infusions, separated by between 10 and 14 days, may be necessary to provide about 500 mg iron per Kg body weight. […] At least twenty half-lives, sixty days, passes before using any of the animals in experiments evaluating iron-chelating agents.
Seven days before the administration of the drug, the animals are placed in metabolic cages and started on a low-iron liquid diet. The monkeys are maintained on the low-iron liquid diet for the duration of the experiment. They are given food according to their body weight, and intake is very carefully monitored.
Three days prior to drug administration, day −2 to day 0, baseline iron intake and output values are measured. This same measurement is made for day +1 to day +3. The total amount of iron intake is compared with the total amount of iron excreted.
Fecal and urine samples are collected at 24 hour intervals. The collections begin four days prior to the administration of the test drug and continue for an additional five days after the drug is given. Fecal samples are assayed for the presence of occult blood, weighed, and mixed with distilled deionized water prior to autoclaving for 30 minutes. The mixture is then freeze-dried, and a known portion of the powder is mixed with low-iron nitric acid and refluxed for 24 hours. Once any particulate matter in the digested samples is removed by centrifugation, iron concentrations are determined by flame atomic absorption. Monkey urine samples are acidified and reconstituted to initial volume after sterilization, if necessary.
The monosodium salt of HBED in distilled H2O was given to the monkeys intravenously (IV) at a single dose of 75 μmol/kg (34.6 mg/kg n=4).
The conditions of data set [5]: IV bolus, conscious rats, 200-300 mg/kg.
The nature of data set [6]: Impact of IV chelator on blood pressure and heart rate in normotensive rats. The class given is in vivo, Sprague Dawley rats. As for the experimental part:
Owing to the profound impact that DFO administered IV can have on blood pressure and cardiac function (Whitten, D. F.; Gibson, G. W.; Good, M. H.; Goodwin, J. F.; Brough, A. J. Studies in Acute Iron Poisoning. I. Desferrioxamine in the Treatment of Acute Iron Poisoning: Clinical Observations, Experimental Studies, and Theoretical Considerations. Pediatrics 1965, 36, 322-335), the manufacter recommends that the drug be given by this route at doses not to exceed 15 mg/kg/h (22 μmol/kg/h). In addition, patients suffering from acute iron toxicity should be given DFO IV only under circumstances of cardiovascular collapse, and even then at doses not to exceed 15 mg/kg/h for the first 1000 mg. Subject IV dosing, if needed, must be at a slower rate not to exceed 125 mg/h. Upon consideration of this, this example compares the impact of DFO and NaHBED administered IV on blood pressure and heart rate in normotensive rodents. The chelators were administered at a dose of 300 μmol/kg in a 0.5-ml volume either by IV bolus (n=5 for both drugs) or by IV infusion over a 20-min period (n=5 for NaHBED, n=4 for DFO) in accordance with the following procedure.
The basic procedure has been described in an earlier publication (Bergeron, R. J.; Wiegand, J.; Sninsky, C. A.; Katovich, M. J. The Impact of Polyamine Analogues on the Blood Pressure of Normotensive and Hypertensive Rats. Clin. Exp. Hypertension 1995, 17, 1197-1217). Briefly, normotensive adult male Sprague Dawley rats (400 g) were anesthetized with sodium pentobarbital (55 mg/kg IP). After the neck and shoulder areas were prepared for surgery, an incision was made into the neck area. The proximal end of the carotid artery was tied off with 3-0 silk; the other end was clamped. Once a piece of PE-50 tubing was inserted approximately 3 cm into the artery and tied into place; the tubing was skin tunneled to the shoulder area. The jugular vein was cannulated using a similar procedure. Both of the tubings were flushed with heparin (100 U/ml); a stylet was inserted.
Approximately 24 h after the surgery, the animals were placed into individual cages and were connected to a blood pressure transducer (ADInstrurnents, Inc., Milford, MA) via the carotid catheter. […]
After a ½-h stabilization period, 0.5 ml of saline was administered as an IV bolus via the jugular vein catheter, and the blood pressure and heart rate were monitored for 5 min. […] The blood pressure and heart rate readings were taken for 1 h post-drug, during which the animals were unrestrained.
Rats receiving the drug as a 20-min IV infusion (n=5 for HBED, n=4 for DFO) were allowed to acclimate as above. […] Blood pressure and heart rate were monitored during the infusion and for one hour thereafter.

[7] abbreviates: IV push, single dose 75 μmol/kg.
[8] abbreviates: 300 μmol/kg, 20-min IV infusion.

In the case of `O=C(O)CN(CCN(CC(=O)O)Cc1ccccc1O)Cc1ccccc1O` [HBED, N,N′-bis(2-hydroxybenzyl)-ethylenediamine-N,N′-diacetic acid], the iron excretion level result in data set [1] is recorded as “ineffective for the treatment of iron overload”.
For `CC(=O)N(O)CCCCCNC(=O)CCC(=O)N(O)CCCCCNC(=O)CCC(=O)N(O)CCCCCN` [DFO, deferoxamine B], the “share of the compound administered that binds iron” value in data set [2] is listed as ≤ 5%. In data set [3], the “activity compared with HBED or its dimethyl ester given orally” value is reported as “significantly higher activity”.
In the case of `O=C(O)CN(CCN(CC(=O)O)Cc1ccccc1O)Cc1ccccc1O` [HBED monosodium salt, N,N′-bis(2-hydroxybenzyl)-ethylenediamine-N,N′-diacetic acid], the “net iron excretion relative to similar doses of subcutaneous DFOM” value in data set [4] (IV push 75 μmol/kg vs subcutaneous DFOM) is reported as “nearly three times”. In addition, in data set [4] (setting [7]), the “share of excreted iron in the stool” value is reported as 70% and the “share of excreted iron in the urine” value was found to be 30%. The side-effects result in data set [5] is reported as “no apparent side-effects”. In addition, in data set [6] (300 μmol/kg IV bolus), the “effect on blood pressure” value is listed as “no effect” and the “effect on heart rate” value is listed as “no effect”. Further, in data set [6] (setting [8]), the “effect on blood pressure” value is “no effect” and the “effect on heart rate” value is given as “no effect”.
